This passage reports LC retention time results from the RepoRT retention time repository (doi:10.1007/s00216-013-6954-6).

Structures are written as SMILES.

The first data set can be described thus: RP, Waters ACQUITY UPLC HSS T3, 150 × 2.1 mm, 1.8 µm; A: water + 0.1% formic acid; B: acetonitrile + 0.1% formic acid; gradient (min/%B) 0/5 1/5 16/95 18/95. The following applies: stereoisomer not certain.
Consider `Nc1ncnc2c1ncn2C1CC(O)C(CO)O1` (stereo not given), for which the LC retention time came out at 0.8 min. Consider `COC1C(O)C(CO)OC1n1cnc2c(N)ncnc21` (stereo not given), for which the LC retention time came out at 1.1 min.

Another data set in a line: RP, Waters ACQUITY UPLC HSS T3, 100 × 1 mm, 1.8 µm; A: water + 0.1% formic acid, pH 3; B: acetonitrile + 0.1% formic acid, pH 3; gradient (min/%B) 0/5 1/5 16/95 18/95 20/5. Particulars: stereoisomer not certain.
`Nc1ncnc2c1ncn2C1CC(O)C(CO)O1` (stereo not given): the LC retention time is 0.8 min. Same read-out and setting: the result for `COC1C(O)C(CO)OC1n1cnc2c(N)ncnc21` (stereo not given) reads 1.1 min; that for `O=C(O)Cc1ccccc1` [Phenylacetic acid], 3.6 min; that for `Cn1c(=O)c2c(ncn2C)n(C)c1=O` [Caffeine], 3.46 min. Same read-out and setting: the figure for `CC(CCC(=O)NCC(=O)O)C1CCC2C3C(O)CC4CC(O)CCC4(C)C3CC(O)C12C` (stereo not given) [Glycocholic acid] is 7.92 min.

With `CC(C)C(N)C(=O)NC(Cc1ccccc1)C(=O)O` (stereo not drawn) [H-Val-Phe-OH], the LC retention time amounted to 3.3 min. On the same count and under the same terms, the figure for `CC(C)CC(N)C(=O)O` (stereo not given) [Leucine] is 0.795 min. For `CCC(C)C(N)C(=O)NC(C(=O)O)C(C)CC` (stereo not drawn) [H-Ile-Ile-OH], the LC retention time amounted to 3.1 min. For `CC(C)CC(NC(=O)C(N)Cc1ccccc1)C(=O)O` (stereo not drawn) [H-Phe-Leu-OH], the LC retention time is 4.1 min. On the same count and under the same terms, the result for `COc1cc(C=CCO)ccc1OC1OC(CO)C(O)C(O)C1O` (stereo not given) [Coniferin] reads 3 min. Still for that read-out and setting: the figure for `COc1cc(C=CCO)cc(OC)c1OC1OC(CO)C(O)C(O)C1O` (stereo not given) [Syringin] is 3.2 min; for `CSCCCCCCCCC(N)C(=O)O` (stereo not given) [Hexahomo-Met] it is 5.4 min. On the same count and under the same terms, the figure for `CC12CCC(=O)C=C1CCC1C2C(O)CC2(C)C1CCC2(O)C(=O)CO` (stereo not given) [hydrocortisone, cortisol] is 6.56 min; for `CC(CCC(=O)NCCS(=O)(=O)O)C1CCC2C3C(O)CC4CC(O)CCC4(C)C3CC(O)C12C` (stereo not given) [Taurocholic acid] it is 7.57 min; for `COc1cc(CC2COC(c3ccc(O)c(OC)c3)C2CO)ccc1O` (stereo not given) [Lariciresinol] it is 5.6 min. Consider `Cn1cnc(C[C@H](N)C(=O)O)c1` [1-Methyl-L-Histidine], for which the LC retention time was found to be 0.407 min. Turning to `CCC(C)C(N)C(=O)NC(CC(C)C)C(=O)O` (stereo not drawn) [H-Ile-Leu-OH], the LC retention time is 3.4 min.

For the compound `Nc1ccc(C(=O)O)cc1` [paba], the LC retention time worked out at 1.95 min. Still for that read-out and setting: the figure for `CCCCCCCCC=CCCCCCCCC(=O)OCC(O)COP(=O)([O-])OCC[N+](C)(C)C` (stereo not given) [lysoPC(18:1(9Z)/0:0)] is 12 min. The same measure, in the same setting: the result for `O=C(O)CCCCC(=O)O` [Adipic acid] reads 2.33 min; that for `CCC(C)C(N)C(=O)O` (stereo not given) [Isoleucine], 0.795 min; that for `O=C(O)C1Cc2c([nH]c3ccccc23)CN1` (stereo not given) [3-Carboxy-1,2,3,4-tetrahydro-2-carboline], 3.1 min. Same read-out and setting: the figure for `CS(=O)CCCCCCCCN=C=S` (stereo not drawn) [8-MeSO-Octyl-NCS] is 8.1 min; for `CC(C)CC(NC(=O)C(N)C(C)C)C(=O)O` (stereo not drawn) [H-Val-Leu-OH] it is 2.7 min; for `CSCCCCCCCC(N)C(=O)O` (stereo not given) [Pentahomo-Met] it is 4.6 min. As for `O=C(O)C1CCCN1` (stereo not given) [Proline], the LC retention time was 0.482 min. Still for that read-out and setting: the figure for `O=c1[nH]c(=O)c2[nH]c(=O)[nH]c2[nH]1` [Uric acid] is 0.643 min; for `Cc1cn(C2CC(O)C(CO)O2)c(=O)[nH]c1=O` (stereo not given) [Thymidine] it is 1.6 min; for `O=C(O)CCCCCC(=O)O` [Pimelic acid] it is 3.47 min. The same measure, in the same setting: the result for `CCCCCCCCCCCCCCCC(=O)OCC(O)COP(=O)([O-])OCC[N+](C)(C)C` (stereo not given) [lysoPC(16:0/0:0)] reads 11.6 min. The same measure, in the same setting: the result for `COn1cc(CN)c2ccccc21` [1-MeO-I3CH2NH2] reads 3.7 min; that for `CC12CCC(=O)C=C1CCC1C2C(=O)CC2(C)C1CCC2(O)C(=O)CO` (stereo not given) [Cortisone], 6.61 min. Take `NC(=O)NCCCC(N)C(=O)O` (stereo not given) [Citrulline]: the LC retention time turned out to be 0.457 min. The same measure, in the same setting: the figure for `CC(C(=O)O)C(=O)O` [Methylmalonic acid] is 0.733 min; for `CCC(C)C(NC(=O)C(N)Cc1ccc(O)cc1)C(=O)O` (stereo not drawn) [H-Tyr-Ile-OH] it is 2.9 min; for `O=c1ccc2cc(OC3OC(CO)C(O)C(O)C3O)c(O)cc2o1` (stereo not given) [Esculin] it is 2.9 min.

As for `COc1cc2ccc(=O)oc2cc1O` [Scopoletin], the LC retention time was determined as 4.5 min. The same measure, in the same setting: the figure for `NC(N)=NCCCC(N)C(=O)O` (stereo not given) [Arginine] is 0.413 min. Still for that read-out and setting: the result for `O=C(O)C(O)Cc1ccccc1` (stereo not given) [phenyllactic acid] reads 4.37 min. Consider `CC(C)CC(NC(=O)C(N)Cc1ccc(O)cc1)C(=O)O` (stereo not drawn) [H-Tyr-Leu-OH], for which the LC retention time was 3.2 min. As for `NCC(=O)NC(Cc1ccccc1)C(=O)O` (stereo not drawn) [H-Gly-Phe-OH], the LC retention time is 2.3 min. Same read-out and setting: the result for `O=c1cc[nH]c(=O)[nH]1` [Uracil] reads 0.638 min; that for `COc1cc2ccc(=O)oc2cc1OC1OC(CO)C(O)C(O)C1O` (stereo not given) [Scopolin], 3.3 min. Turning to `CC(C)CC(N)C(=O)NC(Cc1ccc(O)cc1)C(=O)O` (stereo not drawn) [H-Leu-Tyr-OH], the LC retention time turned out to be 2.8 min. Same read-out and setting: the figure for `O=c1[nH]cnc2c1ncn2C1OC(CO)C(O)C1O` (stereo not given) [Inosine] is 0.839 min. With `NCCS(=O)(=O)O` [Taurine], the LC retention time came to 0.446 min. On the same count and under the same terms, the figure for `CCC(C)C(NC(=O)C(N)CC(C)C)C(=O)O` (stereo not drawn) [H-Leu-Ile-OH] is 3.3 min.

Consider `O=C(O)CCCC(=O)O` [Glutaric acid], for which the LC retention time is 1.14 min. On the same count and under the same terms, the figure for `CC(C)C(NC(=O)C(N)Cc1ccccc1)C(=O)O` (stereo not drawn) [H-Phe-Val-OH] is 3 min. Same read-out and setting: the result for `COc1cccc2[nH]cc(CN)c12` [4-MeO-I3CH2NH2] reads 3.2 min; that for `O=C(O)CCCCCCCC(=O)O` [Azelaic acid], 5.35 min.

Turning to `Nc1ncnc2nc[nH]c12` [Adenine], the LC retention time came to 0.525 min. Same read-out and setting: the result for `O=C(O)c1c[nH]c2ccccc12` [Indole-3-carboxylic acid (I3CO2H)] reads 4.7 min; that for `CC(CCC(=O)O)C1CCC2C3C(O)CC4CC(O)CCC4(C)C3CCC12C` (stereo not given) [Chenodeoxycholic acid], 10.5 min. On the same count and under the same terms, the result for `O=C1CCC(C(=O)O)N1` (stereo not given) [Pyroglutamic acid] reads 0.687 min; that for `CC(CCC(=O)O)C1CCC2C3C(O)CC4CC(O)CCC4(C)C3CC(O)C12C` (stereo not given) [Cholic acid], 8.94 min.

With `CCC(C)C(NC(=O)C(N)Cc1ccccc1)C(=O)O` (stereo not drawn) [H-Phe-Ile-OH], the LC retention time turned out to be 3.8 min. Same read-out and setting: the result for `NC(Cc1ccccc1)C(=O)NCC(=O)O` (stereo not drawn) [H-Phe-Gly-OH] reads 1.7 min.
